Test results: patent publication US20080176787A1, “Parathyroid hormone analogues and methods of use” (priority 2005, published 2008)
Several values for one entry are separate records, joined by “and”; a condition that tells them apart may be missing. Equal entries are not always repeated. Where two headings read alike, the source gives them in different places. Positions of bridges follow the written chain, without caps; N, C: chain ends. Residues, ends and D or L forms follow the SMILES beside them.

Test: Phase II pharmacokinetic evaluation of subcutaneous Ostabolin-C (Baseline and Week 12 subset)
Assay type: in vivo, human
Set-up: AUC(0-24): unit: pg·h/mL
Method: The objective of this portion of the study was to evaluate the pharmacokinetics of Ostabolin-C under steady state conditions when given subcutaneously (sc) once a day to post-menopausal female subjects with low bone mineral density.
After Screening procedures and a 2-week placebo run-in phase, subjects were to be dosed once a day for 16 weeks with either Placebo or Ostabolin-C (7.5, 15, 30 or 45 μg). A subset of subjects from all treatment groups had blood collected for measurements of Ostabolin-C in order to determine PK parameters and compare them to prior studies.
The full study duration of the study was 22 weeks, which included a 6-week screening period involving a 2-week placebo run-in and then 16 weeks of treatment. The subset of subjects for this component of the study was treated the same as all other subjects with the exception of the additional blood collections at baseline and Week 12.
All of the values from the Placebo subject except one (Baseline 2 hour time-point) were below the assay level of detection (i.e., 10 pg/ml). With very limited exceptions, all values from Placebo subjects in prior trials have also been below the levels of detection. Thus, this one value was considered to be a laboratory error and PK parameters for this placebo subject were not calculated.
No samples were obtained for Pre-dose at either Baseline or Week 12. In all prior studies, pre-treatment values have been below the levels of detection and 24-hour time points at doses of 40 ug and below have been below the levels of detection. Thus, no observable values were anticipated and for calculating PK the pre-treatment values for Baseline visit were set to zero.
For pre-dose at Week 12, it was also anticipated that the values would be below the levels of detection based on prior studies and that the 24-hour post dose value would verify this. Only two 24-hour time-point values were above the level of detection; i.e. 24 hours post dosing at Baseline for Subject 030-003 and 24 hours post dosing at Week 12 for Subject 030-0004. The values of both of these 24-hour time-points were marginally above the assay level of detection. Also, both of these subjects had values below the levels of detection for both the 4 hour and 6 hour time-points after dosing on the prior day. Thus, these values are most likely artifacts and not real values. No valid 24 hour sample for subject 032-0001 at Week 12 was obtained. […] Thus, for calculating PK parameters, the Pre-dose values for Week 12 were also set to zero.
The pharmacokinetic parameters that were estimated at Baseline and Week 12 are as follows:
AUC values were estimated by a simple summation of trapezoidal areas from each time period. Data from each dose group were summarized using simple statistics on an Excel® spreadsheet; i.e., average (AVG) and Standard Deviation (STD). It should be noted that particularly with the lower doses and associated low blood levels and at late time points, those values just above versus just below the assay limits of detection can have a disproportionate impact to AUC calculations. This adds to that variability of the calculated numbers.

[1] = Baseline, 7.5 ug, individual subjects, in pg·h/mL
[2] = Baseline, 15 ug, individual subjects, in pg·h/mL
[3] = Baseline, 45 ug, individual subjects, in pg·h/mL
[4] = Week 12, 7.5 ug, individual subjects, in pg·h/mL
[5] = Week 12, 30 ug, individual subjects, in pg·h/mL

CC[C@H](C)[C@H](NC(=O)[C@H](CCC(=O)O)NC(=O)[C@H](CO)NC(=O)[C@@H](NC(=O)[C@@H](N)CO)C(C)C)C(=O)N[C@@H](CCC(N)=O)C(=O)N[C@@H](CC(C)C)C(=O)N[C@@H](CCSC)C(=O)N[C@@H](Cc1c[nH]cn1)C(=O)N[C@@H](CC(N)=O)C(=O)N[C@@H](CC(C)C)C(=O)NCC(=O)N[C@@H](CCCCN)C(=O)N[C@@H](Cc1c[nH]cn1)C(=O)N[C@@H](CC(C)C)C(=O)N[C@@H](CC(N)=O)C(=O)N[C@@H](CO)C(=O)N[C@@H](CCSC)C(=O)N[C@@H](CCC(=O)O)C(=O)N[C@@H](CCCN=C(N)N)C(=O)N[C@H](C(=O)N[C@H]1CCC(=O)NCCCC[C@@H](C(=O)N[C@@H](CC(C)C)C(=O)N[C@@H](CC(C)C)C(=O)N[C@@H](CCC(N)=O)C(=O)N[C@@H](CC(=O)O)C(=O)N[C@H](C(N)=O)C(C)C)NC(=O)[C@H](CCCN=C(N)N)NC(=O)[C@H](CC(C)C)NC(=O)[C@H](Cc2c[nH]c3ccccc23)NC1=O)C(C)C [Ostabolin-C, [Leu^27]cyclo[Glu^22-Lys^26]-PTH-(1-31)-NH2] (H-SVSEIQLMHNLGKHLNSMERVEWLRKLLQDV-NH2; lactam 22-26)
Tmax (Baseline, 7.5 ug, individual subjects): 1.00
Cmax (Baseline, 7.5 ug, individual subjects, in pg/mL): 27.75 and 33.15
AUC(0-4) [1]: 11.71 and 16.25 and 88.35
AUC(0-24) [1]: 11.71 and 16.25 and 99.67
Cmax (Baseline, 15 ug, individual subjects, in pg/mL): 57.54 and 46.59
AUC(0-4) [2]: 82.31 and 74.38
AUC(0-24) [2]: 82.31 and 74.38
Cmax (Baseline, 45 ug, individual subjects, in pg/mL): 114.54 and 233.33
AUC(0-4) [3]: 344.39
AUC(0-24) [3]: 370.47
Cmax (Week 12, 7.5 ug, individual subjects, in pg/mL): 37.84 and 40.38
AUC(0-4) [4]: 28.83 and 64.83
AUC(0-24) [4]: 28.83 and 64.83
AUC(0-24) (Week 12, 15 ug, individual subjects): 164.36 and 54.29* and 110.80
Cmax (Week 12, 15 ug, individual subjects, in pg/mL): 41.98 and 33.33 and 69.33
AUC(0-4) (Week 12, 15 ug, individual subjects, in pg·h/mL): 68.69 and 54.29 and 110.80
Cmax (Week 12, 30 ug, individual subjects, in pg/mL): 46.75
AUC(0-4) [5]: 142.45 and 70.73
AUC(0-24) [5]: 214.03
accumulation (after 12 weeks of dosing): no evidence of accumulation
Tmax (female, human, blood, sc, 7.5 ug, Baseline, 7.5 ug, AVG, read-out: Tmax): 30 min
AUC(0-t) (female, human, blood, sc, 7.5 ug, Dose 7.5, mean of Baseline and Week 12 data, read-out: AUC(0-4)): 0.0365 ng·h/mL
AUC(0-t) (female, human, blood, sc, 7.5 ug, Dose 7.5, mean of Baseline and Week 12 data, read-out: AUC(0-24)): 0.0384 ng·h/mL
Cmax (female, human, blood, sc, 7.5 ug, Dose 7.5, mean of Baseline and Week 12 data, read-out: Cmax): 0.0301 ng/mL
Tmax (female, human, blood, sc, 7.5 ug, Dose 7.5, mean of Baseline and Week 12 data, read-out: Tmax): 22.8 min
AUC(0-t) (female, human, blood, sc, 7.5 ug, Week 12, 7.5 ug, AVG, read-out: AUC(0-4)): 0.0343 ng·h/mL
AUC(0-t) (female, human, blood, sc, 7.5 ug, Week 12, 7.5 ug, AVG, read-out: AUC(0-24)): 0.0343 ng·h/mL
Cmax (female, human, blood, sc, 7.5 ug, Week 12, 7.5 ug, AVG, read-out: Cmax): 0.0331 ng/mL
Tmax (female, human, blood, sc, 7.5 ug, Week 12, 7.5 ug, AVG, read-out: Tmax): 15 min
Tmax (female, human, blood, sc, 15 ug, Baseline, 15 ug, AVG, read-out: Tmax): 19.8 min
AUC(0-t) (female, human, blood, sc, 15 ug, Dose 15, mean of Baseline and Week 12 data, read-out: AUC(0-4)): 0.0761 ng·h/mL
AUC(0-t) (female, human, blood, sc, 15 ug, Dose 15, mean of Baseline and Week 12 data, read-out: AUC(0-24)): 0.092 ng·h/mL
Cmax (female, human, blood, sc, 15 ug, Dose 15, mean of Baseline and Week 12 data, read-out: Cmax): 0.0466 ng/mL
AUC(0-t) (female, human, blood, sc, 15 ug, Week 12, 15 ug, AVG, read-out: AUC(0-4)): 0.0779 ng·h/mL
AUC(0-t) (female, human, blood, sc, 15 ug, Week 12, 15 ug, AVG, read-out: AUC(0-24)): 0.11 ng·h/mL
Cmax (female, human, blood, sc, 15 ug, Week 12, 15 ug, AVG, read-out: Cmax): 0.0482 ng/mL
AUC(0-t) (female, human, blood, sc, 30 ug, Dose 30, mean of Baseline and Week 12 data, read-out: AUC(0-4)): 0.123 ng·h/mL
AUC(0-t) (female, human, blood, sc, 30 ug, Dose 30, mean of Baseline and Week 12 data, read-out: AUC(0-24)): 0.129 ng·h/mL
Cmax (female, human, blood, sc, 30 ug, Dose 30, mean of Baseline and Week 12 data, read-out: Cmax): 0.0701 ng/mL
Tmax (female, human, blood, sc, 30 ug, Dose 30, mean of Baseline and Week 12 data, read-out: Tmax): 22.8 min
Tmax (female, human, blood, sc, 45 ug, Baseline, 45 ug, AVG, read-out: Tmax): 30 min
AUC(0-t) (female, human, blood, sc, 45 ug, Dose 45, mean of Baseline and Week 12 data, read-out: AUC(0-4)): 0.22 ng·h/mL
AUC(0-t) (female, human, blood, sc, 45 ug, Dose 45, mean of Baseline and Week 12 data, read-out: AUC(0-24)): 0.296 ng·h/mL
Cmax (female, human, blood, sc, 45 ug, Dose 45, mean of Baseline and Week 12 data, read-out: Cmax): 0.12 ng/mL
Tmax (female, human, blood, sc, 45 ug, Dose 45, mean of Baseline and Week 12 data, read-out: Tmax): 22.8 min
AUC(0-t) (female, human, blood, sc, 45 ug, Week 12, 45 ug, AVG, read-out: AUC(0-4)): 0.0995 ng·h/mL
AUC(0-t) (female, human, blood, sc, 45 ug, Week 12, 45 ug, AVG, read-out: AUC(0-24)): 0.171 ng·h/mL
Cmax (female, human, blood, sc, 45 ug, Week 12, 45 ug, AVG, read-out: Cmax): 0.0669 ng/mL
Tmax (female, human, blood, sc, 45 ug, Week 12, 45 ug, AVG, read-out: Tmax): 15 min
Tmax (female, human, blood, sc, all doses, Baseline and Week 12 (STD 0.21 hrs), read-out: Tmax, overall average): 20.4 min
AUC(0-t) (female, human, blood, subcutaneous, 7.5 ug, Baseline, 7.5 ug, AVG, read-out: AUC(0-4)): 0.0388 ng·h/mL
AUC(0-t) (female, human, blood, subcutaneous, 7.5 ug, Baseline, 7.5 ug, AVG, read-out: AUC(0-24)): 0.0425 ng·h/mL
Cmax (female, human, blood, subcutaneous, 7.5 ug, Baseline, 7.5 ug, AVG, read-out: Cmax): 0.0272 ng/mL
AUC(0-t) (female, human, blood, subcutaneous, 15 ug, Baseline, 15 ug, AVG, read-out: AUC(0-4)): 0.0742 ng·h/mL
AUC(0-t) (female, human, blood, subcutaneous, 15 ug, Baseline, 15 ug, AVG, read-out: AUC(0-24)): 0.0742 ng·h/mL
Cmax (female, human, blood, subcutaneous, 15 ug, Baseline, 15 ug, AVG, read-out: Cmax): 0.0449 ng/mL
Tmax (female, human, blood, subcutaneous, 15 μg, Dose 15, mean of Baseline and Week 12 data, read-out: Tmax): 19.8 min
Tmax (female, human, blood, subcutaneous, 15 ug, Week 12, 15 ug, AVG, read-out: Tmax): 19.8 min
AUC(0-t) (female, human, blood, subcutaneous, 45 ug, Baseline, 45 ug, AVG, read-out: AUC(0-4)): 0.341 ng·h/mL
AUC(0-t) (female, human, blood, subcutaneous, 45 ug, Baseline, 45 ug, AVG, read-out: AUC(0-24)): 0.42 ng·h/mL
Cmax (female, human, blood, subcutaneous, 45 ug, Baseline, 45 ug, AVG, read-out: Cmax): 0.174 ng/mL
Cmax (human, blood, subcutaneous, 7.5 ug, Baseline, 7.5 ug, individual subjects, read-out: Cmax): 0.0207 ng/mL
Cmax (human, blood, subcutaneous, 7.5 ug, Week 12, 7.5 ug, individual subjects, read-out: Cmax): 0.021 ng/mL
Tmax (human, blood, subcutaneous, 7.5 ug, Week 12, 7.5 ug, individual subjects, read-out: Tmax): 15 min
AUC(0-t) (human, blood, subcutaneous, 15 ug, Baseline, 15 ug, individual subjects, read-out: AUC(0-4)): 0.066 ng·h/mL
AUC(0-t) (human, blood, subcutaneous, 15 ug, Baseline, 15 ug, individual subjects, read-out: AUC(0-24)): 0.066 ng·h/mL
Cmax (human, blood, subcutaneous, 15 ug, Baseline, 15 ug, individual subjects, read-out: Cmax): 0.0306 ng/mL
Tmax (human, blood, subcutaneous, 15 ug, Baseline, 15 ug, individual subjects, read-out: Tmax): 30 min
Tmax (human, blood, subcutaneous, 15 ug, Week 12, 15 ug, individual subjects, read-out: Tmax): 15 min
AUC(0-t) (human, blood, subcutaneous, 30 ug, Baseline, 30 ug, individual subject, read-out: AUC(0-4)): 0.104 ng·h/mL
AUC(0-t) (human, blood, subcutaneous, 30 ug, Baseline, 30 ug, individual subject, read-out: AUC(0-24)): 0.104 ng·h/mL
Cmax (human, blood, subcutaneous, 30 ug, Baseline, 30 ug, individual subject, read-out: Cmax): 0.0639 ng/mL
Tmax (human, blood, subcutaneous, 30 ug, Baseline, 30 ug, individual subject, read-out: Tmax): 30 min
AUC(0-t) (human, blood, subcutaneous, 30 ug, Week 12, 30 ug, individual subjects, read-out: AUC(0-24)): 0.154 ng·h/mL
Cmax (human, blood, subcutaneous, 30 ug, Week 12, 30 ug, individual subjects, read-out: Cmax): 0.0762 ng/mL
Tmax (human, blood, subcutaneous, 30 ug, Week 12, 30 ug, individual subjects, read-out: Tmax): 15 min
AUC(0-t) (human, blood, subcutaneous, 45 ug, Baseline, 45 ug, individual subjects, read-out: AUC(0-4)): 0.337 ng·h/mL
AUC(0-t) (human, blood, subcutaneous, 45 ug, Baseline, 45 ug, individual subjects, read-out: AUC(0-24)): 0.47 ng·h/mL
Tmax (human, blood, subcutaneous, 45 ug, Baseline, 45 ug, individual subjects, read-out: Tmax): 30 min
AUC(0-t) (human, blood, subcutaneous, 45 ug, Week 12, 45 ug, individual subject, read-out: AUC(0-4)): 0.128 ng·h/mL
AUC(0-t) (human, blood, subcutaneous, 45 ug, Week 12, 45 ug, individual subject, read-out: AUC(0-24)): 0.128 ng·h/mL
Cmax (human, blood, subcutaneous, 45 ug, Week 12, 45 ug, individual subject, read-out: Cmax): 0.0871 ng/mL
Tmax (human, blood, subcutaneous, 45 ug, Week 12, 45 ug, individual subject, read-out: Tmax): 15 min
